In patent US20100113445A1, “Chemical Compounds” (SMITHKLINE BEECHAM CORPORATION, priority 2007, published 2010):
Structures can show the parent of a compound that is named as a salt.

target: T1, Wee1 (Homo sapiens, UniProt P30291); experiment: Cell assay for Wee1 inhibitory activity (cell-based ELISA of cdc2 phosphorylation); conditions: aphidicolin-synchronized Hela cells in G2-M; phospho-cdc2(Tyr15) sandwich ELISA; read-out: pIC50, cell assay for Wee1 inhibitory activity (converted)
T1 construct: endogenous in cells; host or cells: HeLa cells
T1 sequence (P30291 whole entry): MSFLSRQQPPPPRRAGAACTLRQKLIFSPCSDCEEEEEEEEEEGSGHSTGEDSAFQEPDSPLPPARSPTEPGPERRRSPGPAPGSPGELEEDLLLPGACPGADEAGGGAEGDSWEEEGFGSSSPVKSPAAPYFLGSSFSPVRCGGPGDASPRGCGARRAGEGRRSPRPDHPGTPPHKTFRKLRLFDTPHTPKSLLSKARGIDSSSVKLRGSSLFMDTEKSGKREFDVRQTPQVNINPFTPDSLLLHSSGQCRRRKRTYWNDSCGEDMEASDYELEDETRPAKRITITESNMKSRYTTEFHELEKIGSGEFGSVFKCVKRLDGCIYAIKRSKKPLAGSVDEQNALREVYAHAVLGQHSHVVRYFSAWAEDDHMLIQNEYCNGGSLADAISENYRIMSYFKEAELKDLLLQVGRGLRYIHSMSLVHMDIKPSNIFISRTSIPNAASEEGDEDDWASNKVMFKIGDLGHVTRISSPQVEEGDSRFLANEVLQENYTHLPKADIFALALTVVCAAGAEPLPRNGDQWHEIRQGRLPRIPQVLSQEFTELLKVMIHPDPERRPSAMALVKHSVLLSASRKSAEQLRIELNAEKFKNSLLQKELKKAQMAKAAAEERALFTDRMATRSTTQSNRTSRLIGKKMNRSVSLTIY
From the text: Cell Assay for Wee1 Inhibitory Activity
Wee1 inhibitory activity can be measured using a cell-based ELISA assay.
Hela cells are synchronized using aphidicolin, which blocks the entry of cells into S-phase. Cells in G2-M transition phase are then obtained by releasing the cells from aphidicolin treatment for approximately 7-9 hrs. The phosphorylation level of the Wee1 target cdc2 may then be measured by sandwich ELISA using an anti-cdc2 antibody and an anti-phospho-cdc2(Tyr15) antibody. This cell assay was used to calculate a pIC50 for the compounds described in Examples 3, 4, 6-8, 10-12, 15, 17, 18, 21, 23, 25-27, 33, 35, 39, 43, 44, 51, 63, and 99.

SMILES | IC50 [µM]
CCN(CC)CCOc1ccc(Nc2ncc(-c3ccc4[nH]ncc4c3)c(Nc3ccccc3OC)n2)cc1 [Example 4, N^2-(4-[{2-(diethylamino)ethyl]oxy}phenyl)-5-(1H-indazol-5-yl)-N^4-[2-(methyloxy)phenyl]-2,4-pyrimidinediamine] | ≤ 10
CCN(CC)CCOc1ccc(Nc2ncc(-c3ccc(O)cc3)c(Nc3ccccc3OC)n2)cc1 [Example 7] | ≤ 10
CCN(CC)CCOc1ccc(Nc2ncc(-c3cnc4ccccc4c3)c(Nc3ccccc3OC)n2)cc1 [Example 10, N^2-(4-{[2-(diethylamino)ethyl]oxy}phenyl)-N^4-[2-(methyloxy)phenyl]-5-(3-quinolinyl)-2,4-pyrimidinediamine] | ≤ 10
CCN(CC)CCOc1ccc(Nc2ncc(-c3ccccc3Cl)c(Nc3ccccc3OC)n2)cc1 [Example 11, 5-(2-chlorophenyl)-N^2-(4-{[2-(diethylamino)ethyl]oxy}phenyl)-N^4-[2-(methyloxy)phenyl]-2,4-pyrimidinediamine] | ≤ 10
CCN(CC)CCOc1ccc(Nc2ncc(-c3cnn(Cc4ccccc4)c3)c(Nc3ccccc3OC)n2)cc1 [Example 12, N^2-(4-{[2-(diethylamino)ethyl]oxy}phenyl)-N^4-[2-(methyloxy)phenyl]-5-[1-(phenylmethyl)-1H-pyrazol-4-yl]-2,4-pyrimidinediamine] | ≤ 10
CCN(CC)CCOc1ccc(Nc2ncc(-c3cccc(CO)c3)c(Nc3ccccc3OC)n2)cc1 [Example 21, [3-(2-[(4-{[2-(diethylamino)ethyl]oxy}phenyl)amino]-4-{[2-(methyloxy)phenyl]amino}-5-pyrimidinyl)phenyl]methanol] | ≤ 10
CCC(C)NC(=O)c1ccccc1Nc1nc(Nc2ccc(Cn3cncn3)cc2)ncc1-c1cn[nH]c1 (stereo not drawn) [Example 25, N-(1-methylpropyl)-2-[(5-(1H-pyrazol-4-yl)-2-{[4-(1H-1,2,4-triazol-1-ylmethyl)phenyl]amino}-4-pyrimidinyl)amino]benzamide] | ≤ 10
Fc1cccc(CCNc2nc(Nc3ccc(Cn4cncn4)cc3)ncc2-c2cncnc2)c1 [Example 26, N^4-[2-(3-fluorophenyl)ethyl]-N^2-[4-(1H-1,2,4-triazol-1-ylmethyl)phenyl]-5,5′-bipyrimidine-2,4-diamine] | ≤ 10
COc1ccccc1Nc1nc(Nc2ccc(Cn3cncn3)cc2)ncc1-c1cncnc1 [Example 33, N^4-[2-(methyloxy)phenyl]-N^2-[4-(1H-1,2,4-triazol-1-ylmethyl)phenyl]-5,5′-bipyrimidine-2,4-diamine] | ≤ 10
CCN(CC)CCOc1ccc(Nc2ncc(-c3cncnc3)c(Nc3cccc(C#N)c3)n2)cc1 [Example 44, 3-({2-[(4-{[2-(diethylamino)ethyl]oxy}phenyl)amino]-5,5′-bipyrimidin-4-yl}amino)benzonitrile] | ≤ 10
Cc1ncc(-c2cccc(Nc3nc(Nc4ccc(Cn5cncn5)cc4)ncc3-c3cncnc3)c2)s1 [Example 51, N^4-[3-(2-methyl-1,3-thiazol-5-yl)phenyl]-N^2-[4-(1H-1,2,4-triazol-1-ylmethyl)phenyl]-5,5′-bipyrimidine-2,4-diamine] | ≤ 10
COc1ccccc1Nc1nc(Nc2cccc(OCCN(C)C)c2)ncc1-c1cn[nH]c1 [Example 99, N^2-(3-{[2-(dimethylamino)ethyl]oxy}phenyl)-N^4-[2-(methyloxy)phenyl]-5-(1H-pyrazol-4-yl)-2,4-pyrimidinediamine hydrochloride] | ≤ 10

Other lines, results leading:

IC50 [µM] | SMILES
≤ 10 | CCN(CC)CCOc1ccc(Nc2ncc(-c3cn[nH]c3)c(Nc3ccccc3OC)n2)cc1 [Example 3, N^2-(4-{[2-(diethylamino)ethyl]oxy}phenyl)-N^4-[2-(methyloxy)phenyl]-5-(1H-pyrazol-4-yl)-2,4-pyrimidinediamine]
≤ 10 | CCN(CC)CCOc1ccc(Nc2ncc(-c3cncc(OC)c3)c(Nc3ccccc3OC)n2)cc1 [Example 6, N^2-(4-{[2-(diethylamino)ethyl]oxy}phenyl)-N^4-[2-(methyloxy)phenyl]-5-[5-(methyloxy)-3-pyridinyl]-2,4-pyrimidinediamine]
≤ 10 | CCN(CC)CCOc1ccc(Nc2ncc(-c3cncnc3)c(Nc3ccccc3OC)n2)cc1 [Example 8, N^2-(4-{[2-(diethylamino)ethyl]oxy}phenyl)-N^4-[2-(methyloxy)phenyl]-5,5′-bipyrimidine-2,4-diamine]
≤ 10 | CCN(CC)CCOc1ccc(Nc2ncc(-c3cccc(N)c3)c(Nc3ccccc3OC)n2)cc1 [Example 35, 5-(3-aminophenyl)-N^2-(4-{[2-(diethylamino)ethyl]oxy}phenyl)-N^4-[2-(methyloxy)phenyl]-2,4-pyrimidinediamine]
≤ 10 | CCN(CC)CCOC(=O)Nc1ccc(Nc2ncc(-c3cncnc3)c(Nc3ccccc3OC)n2)cc1 [Example 43, 2-(diethylamino)ethyl {4-[(4-{[2-(methyloxy)phenyl]amino}-5,5′-bipyrimidin-2-yl)amino]phenyl}carbamate]
≤ 10 | CCN(CC)CCOc1ccc(Nc2ncc(-c3cccc(C(N)=O)c3)c(Nc3ccccc3OC)n2)cc1 [Example 63, 3-(2-[(4-{[2-(diethylamino)ethyl]oxy}phenyl)amino]-4-{[2-(methyloxy)phenyl]amino}-5-pyrimidinyl)benzamide]
